# Experimental data reported in patent US20140079836A1, “METHODS AND COMPOSITIONS FOR ALTERING HEALTH, WELLBEING, AND LIFESPAN” (LifeSpan Extension, LLC, priority 2008, published 2014).
# Test system: Drosophila Melanogaster
# Assay: Drosophila survival/longevity after antioxidant media
# Assay type: in vivo
# Experimental: Drosophila cultures: A wingless variant of Drosophila Melanogaster was purchased from Carolina Biological Supply. These flies were fed nutrient media (Formula 4-24) and experimental flies were collected within 18 hours after hatching to ensure the females were virgin. Culture media: Flies were given a combination of the following: 1) Formula 4-24 without blue coloring for breeding and post exposure to antioxidants. […] 4) 20% sucrose solution on filter paper following AOX incubation to serve as a low nutrient media and known lifespan shortening agent. […] The flies remain in the antioxidant media for 12 days. […] All the flies are examined daily and media changed as required until all the flies have died. The date (post 12 day antioxidant incubation) is recorded. Lifespan results: The cumulative average lifespan of all flies for each group are then computed and compared against the cumulative average of the control (untreated) flies to determine if the Antioxidants increase lifespan. The average lifespan increase is separated by sex as well as combined for both sexes. This lifespan extension is expressed as a percent increase or decrease over control values. Culture media: […] Experimental phase: […] Lifespan results: The cumulative average lifespan of all flies for each group are then computed and compared against the cumulative average of the control (untreated) flies to determine if the antioxidants increase lifespan. The average lifespan increase is separated by sex as well as combined for both sexes.
# [1] = 0.01% antioxidant in media from hatching, antioxidant alone
# [2] = 0.1% antioxidant in media from hatching, antioxidant alone
# [3] = 1% antioxidant in media from hatching, antioxidant alone
# [4] = 1% antioxidant media 12 days, then 20% Sucrose
# [5] = 1% antioxidant media 12 days, then 20% Sucrose, vs 20% Sucrose
# [6] = 1% antioxidant media 12 days, then H2O2 media
# [7] = 1% antioxidant media 12 days, then H2O2 media, vs H2O2
smiles,measurement,setting,value
"COC1=C(OC)C(=O)C(CCCCCCCCCCO)=C(C)C1=O [Idebenone, 6-(10-hydroxydecyl)-2,3-dimethoxy-5-methyl-1,4-benzoquin-one]","average lifespan, Average of Both",[1],23.4 days
same,"average lifespan, FEMALE",[1],23.4 days
same,"average lifespan, Average of Both",[2],10.2 days
same,"average lifespan, FEMALE",[2],10.2 days
same,"average lifespan, Average of Both",[3],10 days
same,"average lifespan, FEMALE",[3],12.4 days
same,"average lifespan, MALE",[3],8.1 days
same,"average lifespan, Average of Both",[4],11.89 days
same,"average lifespan, FEMALE",[4],11.7 days
same,"average lifespan, MALE",[4],12.11 days
same,"% Change of lifespan over control, Average of Both",[5],+5%
same,"% Change of lifespan over control, FEMALE",[5],−4%
same,"% Change of lifespan over control, MALE",[5],+24%
same,"average lifespan, Average of Both",[6],5.75 days
same,"average lifespan, FEMALE",[6],5.50 days
same,"average lifespan, MALE",[6],5.32 days
same,"% Change of lifespan over control, Average of Both",[7],+8%
same,"% Change of lifespan over control, FEMALE",[7],−7%
same,"% Change of lifespan over control, MALE",[7],+8%
